Results: US20220119411A1, “IMMUNOMODULATORS, COMPOSITIONS AND METHODS THEREOF” (BETTA PHARMACEUTICALS CO., LTD, priority 2018, published 2022)
pIC50: −log10 of the molar value.

target: T1, PD-1/PD-L1 protein/protein interaction (Homo sapiens, UniProt Q9NZQ7); experiment: PD-1/PD-L1 homogenous time-resolved fluorescence (HTRF) binding assay; conditions: recombinant human PD-L1 (19-238)-His 10 nM, human PD-1 (25-167)-Fc 3 nM, 25° C., PBS pH 7.4
T1 construct: Recombinant human PD-L1 protein (19-238) with a His-tag at the C-terminus; purchased AcroBiosystems PD1-H5229 (PD-L1); PD1-H5257 (PD-1)
T1 sequence (Q9NZQ7 19-238): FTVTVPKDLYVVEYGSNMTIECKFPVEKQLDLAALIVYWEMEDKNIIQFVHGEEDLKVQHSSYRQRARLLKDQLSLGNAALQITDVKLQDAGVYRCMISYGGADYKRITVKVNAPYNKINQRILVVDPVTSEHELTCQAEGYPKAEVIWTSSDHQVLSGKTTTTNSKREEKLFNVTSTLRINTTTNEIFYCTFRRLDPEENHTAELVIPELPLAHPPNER
Description: Resolved Fluorescence (HTRF) Binding Assay
The assays were conducted in a standard black 384-well polystyrene plate with a final volume of 20 μL. Inhibitors were first serially diluted in DMSO and then added to the plate wells before the addition of other reaction components. The final concentration of DMSO in the assay was 1%. The assays were carried out at 25° C. in the PBS buffer (pH 7.4) with 0.05% Tween-20 and 0.1% BSA. Recombinant human PD-L1 protein (19-238) with a His-tag at the C-terminus was purchased from AcroBiosy stems (PD1-H5229). Recombinant human PD-1 protein (25-167) with Fc tag at the C-terminus was also purchased from AcroBiosystems (PD1-H5257). PD-L1 and PD-1 proteins were diluted in the assay buffer and 10 μL was added to the plate well. Plates were centrifuged and proteins were preincubated with inhibitors for 40 min. The incubation was followed by the addition of 10 μL of HTRF detection buffer supplemented with Europium cryptate-labeled anti-human IgG (PerkinElmer-AD0212) specific for Fc and anti-His antibody conjugated to SureLight®—Allophycocyanin (APC, PerkinElmer-AD0059H). After centrifugation, the plate was incubated at 25° C. for 60 min. Before reading on a PHERAstar FS plate reader (665 nm/620 nm ratio). Final concentrations in the assay were—3 nM PD1, 10 nM PD-L1, 1 nM europium anti-human IgG and 20 nM anti-His-Allophycocyanin. IC50 determination was performed by fitting the curve of percent control activity versus the log of the inhibitor concentration using the GraphPad Prism 5.0 software.
Data obtained for the Example compounds using the PD-1/PD-L1 homogenous time-resolved fluorescence (HTRF) binding assay described in Example A is provided in Table 2.

| Structure (SMILES) | pIC50 |
| --- | --- |
| O=C(O)CN1CCc2nc(C(=O)N3CCc4c(-c5cccc(OCCN6CCC(O)C6)c5)cccc43)sc2C1 (stereo not drawn) [Example 8, 2-(2-(4-(3-(2-(3-hydroxypyrrolidin-1-yl)ethoxy)phenyl)indoline-1-carbonyl)-6,7-dihydrothiazolo[5,4-c]pyridin-5(4H)-yl)acetic acid] | ≥ 7.60 |
| Cc1c(OCCCN2CCC(O)C2)cccc1-c1cccc2c1CCN2C(=O)c1nc2c(n1C)CN(CC(=O)O)CC2 (stereo not drawn) [Example 36, 2-(2-(4-(3-(3-(3-hydroxypyrrolidin-1-yl)propoxy)-2-methylphenyl)indoline-1-carbonyl)-3-methyl-3,4,6,7-tetrahydro-5H-imidazo[4,5-c]pyridin-5-yl)acetic acid] | ≥ 7.60 |
| Cc1c(OCCCN2CCOCC2)cccc1-c1cccc2c1CCN2C(=O)c1nc2c(o1)CN(CC(=O)O)CC2 [Example 23, 2-(2-(4-(2-methyl-3-(3-morpholinopropoxy)phenyl)indoline-1-carbonyl)-6,7-dihydrooxazolo[5,4-c]pyridin-5(4H)-yl)acetic acid] | ≥ 7.60 |
| Cc1c(NC(=O)CCN2CCC(O)C2)cccc1-c1cccc2c1CCN2C(=O)c1nc2c(n1C)CN(CC(=O)O)CC2 (stereo not drawn) [Example 20, 2-(2-(4-(3-(3-(3-hydroxypyrrolidin-1-yl)propanamido)-2-methylphenyl)indoline-1-carbonyl)-3-methyl-3,4,6,7-tetrahydro-5H-imidazo[4,5-c]pyridin-5-yl)acetic acid] | ≥ 7.60 |
| Cc1c(Nc2nccc3nccnc23)cccc1-c1cccc2c1CCN2C(=O)c1nc2c(s1)CN(CC(=O)O)CC2 [Example 29, 2-(2-(4-(2-methyl-3-(pyrido[3,4-b]pyrazin-5-ylamino)phenyl)indoline-1-carbonyl)-6,7-dihydrothiazolo[5,4-c]pyridin-5(4H)-yl)acetic acid] | 7.00 to 7.60 |
| Cc1c(NC(=O)CCN2CCC(O)C2)cccc1-c1cccc2c1CCN2C(=O)c1nc2c(s1)CN(CC(=O)O)CC2 (stereo not drawn) [Example 13, 2-(2-(4-(3-(3-(3-hydroxypyrrolidin-1-yl)propanamido)-2-methylphenyl)indoline-1-carbonyl)-6,7-dihydrothiazolo[5,4-c]pyridin-5(4H)-yl)acetic acid] | ≥ 7.60 |
| Cc1c(NC(=O)c2nc3c(n2C)CNCC3)cccc1-c1cccc2c1CCN2C(=O)c1nc2c(s1)CN(CC(=O)O)CC2 [Example 31, 2-(2-(4-(2-methyl-3-(3-methyl-4,5,6,7-tetrahydro-3H-imidazo[4,5-c]pyridine-2-carboxamido)phenyl)indoline-1-carbonyl)-6,7-dihydrothiazolo[5,4-c]pyridin-5(4H)-yl)acetic acid] | ≥ 7.60 |
| O=C(O)CN1CCc2nc(C(=O)N3CCc4c(-c5cccc(OCCCN6CCOCC6)c5)cccc43)sc2C1 [Example 15, 2-(2-(4-(3-(3-morpholinopropoxy)phenyl)indoline-1-carbonyl)-6,7-dihydrothiazolo[5,4-c]pyridin-5(4H)-yl)acetic acid] | ≥ 7.60 |
| Cc1c(OCCCN2CCC(O)C2)cccc1-c1cccc2c1CCN2C(=O)c1nnc(CN)s1 (stereo not drawn) [Example 43, (5-(aminomethyl)-1,3,4-thiadiazol-2-yl)(4-(3-(3-(3-hydroxypyrrolidin-1-yl)propoxy)-2-methylphenyl)indolin-1-yl)methanone] | ≥ 7.60 |
| Cn1c(C(=O)N2CCc3c(-c4cccc5c4CCN5C(=O)CCN4CCC(O)C4)cccc32)nc2c1CN(CC(=O)O)CC2 (stereo not drawn) [Example 35, 2-(2-(1′-(3-(3-hydroxypyrrolidin-1-yl)propanoyl)-[4,4′-biindoline]-1-carbonyl)-3-methyl-3,4,6,7-tetrahydro-5H-imidazo[4,5-c]pyridin-5-yl)acetic acid] | ≥ 7.60 |
| COc1cccc(-c2cccc3c2CCN3C(=O)c2nc3c(s2)CN(CC(=O)O)CC3)c1 [Example 3, 2-(2-(4-(3-methoxyphenyl)indoline-1-carbonyl)-6,7-dihydrothiazolo[5,4-c]pyridin-5(4H)-yl)acetic acid] | ≥ 7.60 |
| Cc1c(NC(=O)c2ccccn2)cccc1-c1cccc2c1CCN2C(=O)c1nc2c(s1)CN(CC(=O)O)CC2 [Example 27, 2-(2-(4-(2-methyl-3-(picolinamido)phenyl)indoline-1-carbonyl)-6,7-dihydrothiazolo[5,4-c]pyridin-5(4H)-yl)acetic acid] | ≥ 7.60 |
| Cc1c(OCCCN2CCCC2)cccc1-c1cccc2c1CCN2C(=O)c1ncc(CNCCO)s1 [Example 45, (5-(((2-hydroxyethyl)amino)methyl)thiazol-2-yl)(4-(2-methyl-3-(3-(pyrrolidin-1-yl)propoxy)phenyl)indolin-1-yl)methanone] | ≥ 7.60 |
| Cc1c(NC(=O)c2nc3c(n2C)CCNC3)cccc1-c1cccc2c1CCN2C(=O)c1nc2c(s1)CN(CC(=O)O)CC2 [Example 32, 2-(2-(4-(2-methyl-3-(1-methyl-4,5,6,7-tetrahydro-1H-imidazo[4,5-c]pyridine-2-carboxamido)phenyl)indoline-1-carbonyl)-6,7-dihydrothiazolo[5,4-c]pyridin-5(4H)-yl)acetic acid] | ≥ 7.60 |
| Cc1c(OCCCN2CCC(O)C2)cccc1-c1cccc2c1CCN2C(=O)c1nnc([C@@H]2CCCN2)s1 (stereo partly drawn) [Example 44, (4-(3-(3-(3-hydroxypyrrolidin-1-yl)propoxy)-2-methylphenyl)indolin-1-yl)(5-((S)-pyrrolidin-2-yl)-1,3,4-thiadiazol-2-yl)methanone] | ≥ 7.60 |
| O=C(O)CN1CCc2nc(C(=O)N3CCc4c(-c5cccc(OCCCN6CCC(O)C6)c5)cccc43)sc2C1 (stereo not drawn) [Example 10, 2-(2-(4-(3-(3-(3-hydroxypyrrolidin-1-yl)propoxy)phenyl)indoline-1-carbonyl)-6,7-dihydrothiazolo[5,4-c]pyridin-5(4H)-yl)acetic acid] | ≥ 7.60 |
| O=C(O)CN1CCc2nc(C(=O)N3CCc4c(-c5ccc(OCCCN6CCC(O)C6)cc5)cccc43)sc2C1 (stereo not drawn) [Example 50, 2-(2-(4-(4-(3-(3-hydroxypyrrolidin-1-yl)propoxy)phenyl)indoline-1-carbonyl)-6,7-dihydrothiazolo[5,4-c]pyridin-5(4H)-yl)acetic acid] | ≥ 7.60 |
| O=C(c1nc2c(s1)CN(CCO)CC2)N1CCc2c(-c3ccc4c(c3)OCCO4)cccc21 [Example 56, (4-(2,3-dihydrobenzo[b][1,4]dioxin-6-yl)indolin-1-yl)(5-(2-hydroxyethyl)-4,5,6,7-tetrahydrothiazolo[5,4-c]pyridin-2-yl)methanone] | ≥ 7.60 |
| Cc1c(OCCCN2CCC(O)C2)cccc1-c1cccc2c1CCN2C(=O)c1cn2c(n1)CNCC2 (stereo not drawn) [Example 41, (4-(3-(3-(3-hydroxypyrrolidin-1-yl)propoxy)-2-methylphenyl)indolin-1-yl)(5,6,7,8-tetrahydroimidazo[1,2-a]pyrazin-2-yl)methanone] | ≥ 7.60 |
| Cn1c(C(=O)N2CCc3c(-c4cccc5c4CCN5CCCN4CCC(O)C4)cccc32)nc2c1CCNC2 (stereo not drawn) [Example 40, (1′-(3-(3-hydroxypyrrolidin-1-yl)propyl)-[4,4′-biindolin]-1-yl)(1-methyl-4,5,6,7-tetrahydro-1H-imidazo[4,5-c]pyridin-2-yl)methanone] | 7.00 to 7.60 |
| O=C(O)CN1CCc2nc(C(=O)N3CCc4c(-c5ccc(NC(=O)CCN6CCC(O)C6)cc5)cccc43)sc2C1 (stereo not drawn) [Example 49, 2-(2-(4-(4-(3-(3-hydroxypyrrolidin-1-yl)propanamido)phenyl)indoline-1-carbonyl)-6,7-dihydrothiazolo[5,4-c]pyridin-5(4H)-yl)acetic acid] | ≥ 7.60 |
